Test results published in patent US20090239926A1, “METHODS FOR THE TREATMENT OF PSORIASIS OR PSORIATIC ARTHRITIS USING CYCLOPROPYL-N-CARBOXAMIDE” (priority 2008, published 2009).
Several values for one entry are separate records, joined by “and”; a condition that tells them apart may be missing. Equal values may be shown once.

Experiments:
[1] = tested on: cAMP in PGE2-stimulated human PBMC; assay: PGE2-induced cAMP elevation in human PBMC; format: cell-based; conditions: PGE2 10 μM
Source text: Prostaglandin E2 (PGE2) binds to prostanoid receptors on monocytes, T cells and other leukocytes and consequently elevates intracellular cAMP levels, resulting in inhibition of cellular responses. The combination of PGE2 and a PDE4 inhibitor synergistically elevates cAMP levels in these cell types, and the elevation of cAMP in PBMC caused by PDE4 inhibitors in the presence of PGE2 is proportional to the inhibitory activity of that PDE4 inhibitor.
Human PBMCs were isolated as described above and plated in 96-well plates at 1×10^6 cells per well in RPMI-1640. The cells were pre-treated with Compound A in a final concentration of 2% DMSO in duplicate at 37° C. in a humidified incubator at 5% CO2 for one hour. The cells were then stimulated with PGE2 (10 μM) (Sigma) for one hour. The cells were lysed with HCl, 0.1N final concentration to inhibit phosphodiesterase activity and the plates were frozen at −20° C. The cAMP produced was measured using cAMP (low pH) Immunoassay kit (R&D Systems).

[2] = tested on: CD11b expression on neutrophils; assay: fMLF-induced neutrophil CD11b expression; format: cell-based; conditions: Homo sapiens, 0.5 h, 30 nM fMLF, 30 minutes, flow cytometry
Method: (§1) CD18/CD11b (Mac-1) expression on neutrophils was measured with the following modifications. (Derian, C. K., et al., J Immunol, 1995. 154(1): 308-17). Neutrophils were isolated as described above, then resuspended in complete medium at 1×10^6 cells/ml, pretreated with Compound A at 10, 1, 0.1, 0.01, and 0 μM in duplicate at a final DMSO concentration of 0.1% for 10 minutes at 37° C. 5% CO2. Cells were then stimulated with 30 nM fMLF for 30 minutes and then chilled to 4° C. Cells were treated with rabbit IgG (Jackson ImmunoResearch Labs, West Grove, Pa., USA) (10 μg/1×10^6 cells) to block Fc receptors, stained with CD18-FITC and CD11b-PE (Becton Dickinson), and analyzed by flow cytometry on a FACSCalibur. CD18/CD11b expression (mean fluorescence) in the absence of stimulation was subtracted from all samples to obtain inhibition curves and calculate IC50.

[3] = tested on: collagen-induced arthritis in male DBA/1 mice; assay: Type II collagen-induced mice arthritis model; format: in vivo; conditions: 25 mg/kg orally once a day for 10 days
Method: Collagen-Induced Arthritis Animal Model: Type II collagen purified from the cartilage of a young calf was dissolved at 4 mg/ml in 0.1M acetic acid and emulsified with an equal volume of complete Freund's adjuvant (CFA). DBA/1 mice (8-12 weeks of age) were then immunized at two sites at the base of the tail on Day 1 with 100 μl of the emulsion.
Treatment regime and measurement of clinical score: 14 animals per test group were treated orally once a day for 10 days (Days 1-10) with vehicle (0.5% carboxymethyl-cellulose/0.25% Tween 80), or Compound A suspended in vehicle at 5 mg/kg or 25mg/kg. The experiment was terminated on Day 10. Mice were monitored daily for signs of arthritis and scored using an established clinical scoring system, where: 0=normal, 1=slight swelling and/or erythema, and 2=pronounced edematous swelling. Each limb was graded, giving a maximum score of 8 per mouse. In addition, paw-swelling was measured using calipers.
Histology: At the end of the experiment, paws from treated mice were fixed in formal saline, decalcified and embedded in wax, sectioned and stained with hematoxylin and eosin. […]

[4] = tested on: fMLF-induced neutrophil LTB4 production; assay: fMLF-induced neutrophil LTB4 production; format: cell-based; conditions: Homo sapiens, 0.5 h, 1 μM fMLP, 30 minutes
Method: Formyl-Met-Leu-Phe (fMLP, Sigma) is a bacterially derived peptide that activates neutrophils to rapidly degranulate, migrate, and adhere to endothelial cells. Among the contents of the neutrophil granule is leukotriene B4 (LTB4), a product of arachidonic acid metabolism and itself a neutrophil stimulant. Compound A was tested for the ability to block fMLF-induced neutrophil LTB4 production.
Human neutrophils were isolated from human leukocyte units by dextran sedimentation as described in Coligan, J. E., et al., Current Protocols in Immunology, ed. R. Coico. Vol. 2. 2002: 2-3. The neutrophils were resuspended in phosphate-buffered saline without calcium or magnesium (BioWhittaker) containing 10 mM HEPES pH 7.2 and plated in 96-well tissue culture plates at a concentration of 1.7×10^6 cells/well. Cells were treated with 50 μM thimerosal (Sigma)/1 mM CaCl2/1 mM MgCl2 for 15 minutes at 37° C. 5% CO2, then treated with Compound A in a final DMSO concentration of 0.01% in duplicate for 10 minutes. Neutrophils were stimulated with 1 μM fMLP for 30 minutes, then lysed by the addition of methanol (20% final concentration) and frozen in a dry ice/isopropanol bath for 10 minutes. Lysates were stored at −70° C. until the LTB4 content was measured by competitive LTB4 ELISA (R&D systems).

[5] = tested on: LPS-stimulated human PBMC TNF-α production; assay: LPS-induced TNF-α production in human PBMC; format: cell-based; conditions: LPS 100 ng/ml, 18-20 hours
Method: LPS-induced TNF-α production in Human PBMC: Human peripheral blood mononuclear cells (PBMC) (2×10^5 cells) were plated in 96-well flat-bottom Costar tissue culture plates (Corning, N.Y., USA) in triplicate. Compound A was dissolved in DMSO (Sigma) and further dilutions were done in culture medium immediately before use. The final DMSO concentration in all samples was 0.25%. Various concentration of Compound A was added to cells one hour before stimulation. Cells were stimulated with LPS (Sigma, St. Louis, Mo., USA) at 100 ng/ml, in the absence or presence of Compound A. Cells were incubated for 18-20 hours at 37 in 5% CO2 and supernatants were then collected, diluted with culture medium and assayed for TNF-α levels by ELISA (Endogen, Boston, Mass., USA) (Muller, G. W., et al., J Med Chem, 1996. 39(17): 3238-40).

[6] = tested on: Lymph node cells (LNC); assay: Lymph node cells of collagen-immunized mice stimulated in vitro with type II collagen or anti-CD3 mAb; format: cell-based; conditions: FIG. 6
Source text: Ex Vivo Procedure: Mice were bled and lymph nodes were excised. Lymph node cells (LNC) were stimulated in vitro with antigen (type II collagen) or mitogen (anti-CD3 mAb) in the presence of Compound A.

[7] = tested on: CD18 expression on neutrophils; assay: fMLF-induced neutrophil CD18 expression; format: cell-based; conditions: Homo sapiens, 0.5 h, 30 nM fMLF, 30 minutes, flow cytometry
Method: as §1

## CCOc1cc([C@@H](CS(C)(=O)=O)N2Cc3cccc(NC(=O)C4CC4)c3C2=O)ccc1OC [Compound A, cyclopropyl-N-{2-[(1S)-1-(3-ethoxy-4-methoxyphenyl)-2-(methylsulfonyl)ethyl]-3-oxoisoindoline-4-yl}carboxamide]
[1]
  EC50: 6.1 µM and 2.9 µg/mL
[2]
  IC50: 30 nM and 0.014 µg/mL
[3]; FIG. 3
  clinical severity of arthritis (clinical score): effective in reducing the clinical severity of arthritis
[3]; P<0.05, FIG. 4
  histological severity of arthritis: reduced the histological severity of arthritis
[4]
  IC50: 10 nM and 0.0047 µg/mL
[5]
  IC50: 51 nM and 0.024 µg/mL
[6]
  production of the Th2 cytokine IL-5: unaffected
[6]; dose-dependent
  IFN-γ production: inhibited
  T cell proliferation: inhibited
  TNF-α production: inhibited
[7]
  IC50: 23 nM and 0.011 µg/mL
